*1 amine or outer side, *2 acyl side, *3 side chain or, on linkers, in order; H or OH if unused. Where a SMILES comes first, the peptide text is derived from it. Bridges are numbered along the chain shown (N, C = ends). [ ]: non-standard residue; d: D form. The star is where a group is joined. Orn(4R-OH,5R-OCH2CH2NMe3+) = C[N+](C)(C)CCO[C@@H](N[*:3])[C@H](O)C[C@H](N[*:1])C(=O)[*:2]; hTyr(3S-OH,4S-OH) = N[C@H](C(=O)O)[C@H](O)[C@@H](O)c1ccc(O)cc1; X1 = CC(O)CCCOc1ccc(-c2ccc(-c3ccc(C(=O)*)cc3)cc2)cc1; X2 = CCCC(O)COc1ccc(-c2ccc(-c3ccc(C(=O)*)cc3)cc2)cc1; X3 = CCC(O)CCOc1ccc(-c2ccc(-c3ccc(C(=O)*)cc3)cc2)cc1; Pro(3S-OH,4S-Me) = C[C@H]1CN[C@H](C(=O)O)[C@H]1O; X4 = O=C(c1ccc(-c2ccc(-c3ccc(O)cc3)cc2)cc1)*; Hyp = O=C(O)[C@@H]1C[C@@H](O)CN1
Columns and labels:
[1] = Rat metabolite profiling (LC-MS with radioactivity detection); assay type: in vivo, Sprague-Dawley rats; conditions: rat, in vivo, iv, 15 mg/kg
Procedure: (i) Rat study design. The study used 12 male Sprague-Dawley rats, each administered a bolus IV injection into the tail vein over approximately 3–4 min of 15 mg/kg of rezafungin (with a target radioactivity of 200 μCi/kg of [^14C]-rezafungin). Three of the rats were bile duct cannulated. Whole blood/plasma, urine, feces/bile, and cage washings were collected at periodic intervals from noncannulated rats until euthanization at 336 h postdose and from bile duct cannulated rats until euthanization at 120 h postdose as that was the duration that the patency of bile duct cannulae could be maintained. Carcasses were collected at the time of euthanization. All samples were analyzed for drug-derived radioactivity by liquid scintillation counting.
(§1) (iv) Metabolite profiling. The metabolite identification and urine profiling were achieved using pooled samples by equal percent weight of samples (urine, bile, feces) or by equal volume (50 μl) aliquots of each plasma sample across all time points/intervals. The urine, plasma, bile, and fecal samples were analyzed using liquid chromatography tandem mass spectrometry (LC-MS) coupled with a radioactivity flow-through detector for metabolite profiling and identification. Tandem MS experiments were performed, and the structures of the metabolites were proposed based on their MS/MS spectra. The proposed structures were confirmed by comparison of the retention times and product ion spectra with the authentic reference standards when possible.

[2] = Monkey metabolite profiling (LC-MS with radioactivity detection); assay type: in vivo, cynomolgus monkeys; conditions: cynomolgus monkey, in vivo, iv, 10 mg/kg
Procedure: (ii) Monkey study design. The study used 3 male cynomolgus monkeys, each administered a single 10 mg/kg IV dose of [^14C]-rezafungin (with a target radioactivity of 100 μCi/kg of [^14C]-rezafungin) by infusion into a saphenous vein over 20 min. Whole blood and plasma samples were collected at each of the following time points: predose, 0.5, 2, 4, 8, 24, 48, 96 120, 144, 168, 240, 480, 720, and 1440 h postdose. Urine, feces, and cage washings were collected at predose (urine/feces only) and daily 24-h collections for 30 days.
as §1

[3] = cited from earlier work
Description: Biliary excretion has been observed for caspofungin([17]) and anidulafungin([18]). In the case of anidulafungin, although uncommon, passive diffusion (up to 10% of dosed fraction) was reported for anidulafungin, with which rezafungin ...

Share of total recovered radioactivity in urine [1] [%] | Share of total plasma radioactivity exposure [2] [%] | Share of total recovered radioactivity in urine [2] [%] | Share of total plasma radioactivity exposure [1] | Share of total recovered radioactivity in feces [2] [%] | Molecule | Passive diffusion, dosed fraction [3]
62 | 8.3 | 42 | about 33% |  | CC(O)CCCOc1ccc(-c2ccc(-c3ccc(C(=O)N[C@H]4C[C@@H](O)[C@@H](OCC[N+](C)(C)C)NC(=O)[C@@H]5[C@@H](O)[C@@H](C)CN5C(=O)[C@H]([C@@H](C)O)NC(=O)[C@H]([C@H](O)[C@@H](O)c5ccc(O)cc5)NC(=O)[C@@H]5C[C@@H](O)CN5C(=O)[C@H]([C@@H](C)O)NC4=O)cc3)cc2)cc1 (stereo partly drawn) [4’-hydroxylpentyl rezafungin] (X1-[Orn(4R-OH,5R-OCH2CH2NMe3+)]T[Hyp][hTyr(3S-OH,4S-OH)]T[Pro(3S-OH,4S-Me)]; lactam 1-C) | 
28 |  | 22 |  | 25 | C[C@@H](O)[C@@H]1NC(=O)[C@H]([C@H](O)[C@@H](O)c2ccc(O)cc2)NC(=O)[C@@H]2C[C@@H](O)CN2C(=O)[C@H]([C@@H](C)O)NC(=O)[C@@H](NC(=O)c2ccc(-c3ccc(-c4ccc(O)cc4)cc3)cc2)C[C@@H](O)[C@@H](OCC[N+](C)(C)C)NC(=O)[C@@H]2[C@@H](O)[C@@H](C)CN2C1=O [despentyl-rezafungin] (X4-[Orn(4R-OH,5R-OCH2CH2NMe3+)]T[Hyp][hTyr(3S-OH,4S-OH)]T[Pro(3S-OH,4S-Me)]; lactam 1-C) | 

More lines, now with the values behind:

Molecule | Share of total recovered radioactivity in urine [1] [%] | Share of total plasma radioactivity exposure [2] [%] | Share of total recovered radioactivity in urine [2] [%] | Share of total plasma radioactivity exposure [1] | Share of total recovered radioactivity in feces [2] [%] | Passive diffusion, dosed fraction [3]
CCC(O)CCOc1ccc(-c2ccc(-c3ccc(C(=O)N[C@H]4C[C@@H](O)[C@@H](OCC[N+](C)(C)C)NC(=O)[C@@H]5[C@@H](O)[C@@H](C)CN5C(=O)[C@H]([C@@H](C)O)NC(=O)[C@H]([C@H](O)[C@@H](O)c5ccc(O)cc5)NC(=O)[C@@H]5C[C@@H](O)CN5C(=O)[C@H]([C@@H](C)O)NC4=O)cc3)cc2)cc1 (stereo partly drawn) [3′-hydroxylpentyl rezafungin] (X3-[Orn(4R-OH,5R-OCH2CH2NMe3+)]T[Hyp][hTyr(3S-OH,4S-OH)]T[Pro(3S-OH,4S-Me)]; lactam 1-C) | 1.9 | 6.3 | 12 |  |  | 
anidulafungin |  |  |  |  |  | up to 10 % of dosed fraction
CCCC(O)COc1ccc(-c2ccc(-c3ccc(C(=O)N[C@H]4C[C@@H](O)[C@@H](OCC[N+](C)(C)C)NC(=O)[C@@H]5[C@@H](O)[C@@H](C)CN5C(=O)[C@H]([C@@H](C)O)NC(=O)[C@H]([C@H](O)[C@@H](O)c5ccc(O)cc5)NC(=O)[C@@H]5C[C@@H](O)CN5C(=O)[C@H]([C@@H](C)O)NC4=O)cc3)cc2)cc1 (stereo partly drawn) [2’-hydroxylpentyl rezafungin] (X2-[Orn(4R-OH,5R-OCH2CH2NMe3+)]T[Hyp][hTyr(3S-OH,4S-OH)]T[Pro(3S-OH,4S-Me)]; lactam 1-C) | 7.8 | 3.0 | 25 | ~11% |  | 
